The text below walks through data of PubChem BioAssay AID449764 (Southern Research Specialized Biocontainment Screening …, 2010).

The subject of the experiment is Mycobacterium tuberculosis H37Rv growth inhibition, no glycerol. In words: Confirmatory growth inhibition assay, Mycobacterium tuberculosis H37Rv, absence of glycerol (AID 449764).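 On all read-outs here: growth read after 7 days of incubation.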 The conditions noted are these: for IC90: measured here: IC90 growth inhibition.

Each structure is given as a SMILES string.

Take `COC(=O)c1c(NC(=O)C(=O)N2CCCC2)sc2c1CC(C)(C)OC2`: the IC50 is 65.3 µM and the IC90 was > 100 µM.

Take `Fc1ccc2[nH]c3c(NCc4ccccc4)ncnc3c2c1`: the half-inhibitory concentration (IC50) is 23.8 µM and the 90% effect concentration (IC90) was 27 µM.

As to `CC1CCCC/C1=N\NC(=S)NCCc1ccccc1` (stereo unspecified), the IC50 is 42.5 µM and the IC90 turned out to be 47.9 µM.

As to `CCOC(=O)c1sc2ncnc(NCC(c3cccs3)N(C)C)c2c1C` (stereo unspecified), the IC50 is 42 µM and the IC90 worked out at 57 µM.

As for `COc1ccc(-c2c(C#Cc3ccsc3)c3ccccc3n2C)cc1`, the IC50 was 33.8 µM and the IC90 amounted to 49.6 µM.

Take `CCC(C)c1ccc2oc(-c3ccc(NC(=O)c4ncn[nH]4)cc3)nc2c1` (stereo unspecified): the IC50 is 8.12 µM and the IC90 came to 33 µM.

`Cc1cccc(-c2oc3ccc(-c4ccc5c(c4)OCO5)cc3c2C#Cc2cncn2C)c1`: the IC50 is 2.86 µM and the IC90 was 3.23 µM.

Consider `CC(C)c1ccc(N2C(=O)NC(=O)/C(=C\C=C\c3ccco3)C2=O)cc1`, for which the IC50 is 44.5 µM and the IC90 amounted to 49.7 µM.

As for `CCN(CCNCC(O)COc1ccccc1C(C)C)c1cccc(C)c1` (stereo unspecified), the IC50 is 22.8 µM and the IC90 worked out at 26 µM.

Turning to `O=c1c(-c2cnn(-c3ccccc3)c2)coc2cc(O)ccc12`, the IC50 is 48.1 µM and the IC90 is > 100 µM.

Turning to `CCOC(=O)Cc1csc(NC(=O)c2c(O)c3c(n(CC(C)C)c2=O)CCCC3)n1`, the IC50 is 18.5 µM and the IC90 came to 36.7 µM.

Regarding `Cc1ccc(C)c(S(=O)(=O)N2CCC(c3nc4c(nnn4Cc4ccc5c(c4)OCCO5)c(=O)[nH]3)CC2)c1`, the IC50 is 24.2 µM and the IC90 was > 100 µM.

Regarding `CCOC(=O)c1nnc(-c2ccccc2)nc1Sc1ccccc1Cl`, the IC50 was 90.6 µM and the IC90 was > 100 µM.

`COc1ccccc1N1CCN(CCCCOc2cccc3ccccc23)CC1`: the IC50 was 33 µM and the IC90 amounted to 43.5 µM.

Regarding `CCOC(=O)COn1c2c(c3c4no[n+]([O-])c4ccc31)CCCC2`, the IC50 was 5.68 µM and the IC90 is 6.48 µM.

Consider `CCCCS/C(N)=N/N=C/c1cc(C)ccc1O`, for which the IC50 is 22.7 µM and the IC90 came out at 34.1 µM.

On to `CCCN(CCC)CCNC(=O)c1cc2c(-c3ccc(Cl)cc3)nn(C)c2s1`, for which the IC50 was 23.9 µM and the IC90 was determined as 27.1 µM.

`CCOC(=O)C1=NOC(CNc2ncc(C(F)(F)F)cc2Cl)C1` (stereo unspecified): the IC50 was 11.3 µM and the IC90 is 14.4 µM.

As to `O=C1C(=O)N(c2ccccc2)c2ccccc21`, the IC50 was 17.8 µM and the IC90 came to 34 µM.

Regarding `CCOC(=O)C(C)Sc1nc(-c2cccs2)ccc1C#N` (stereo unspecified), the IC50 is 44.2 µM and the 90% effect concentration (IC90) is 50.3 µM.

As to `Nc1c2c(nc3ccn(Cc4ccccc4)c(=O)c13)CCC2`, the IC50 is 9.72 µM and the IC90 came out at 15.9 µM.

For `CNC(C)C#Cc1ccc2oc3cc(C)c(C)cc3c(=O)c2c1` (stereo unspecified), the IC50 is 16.4 µM and the IC90 is 35.5 µM.

With `O=C(NC1CCCCC1)C(c1cccs1)N(CCCN1CCOCC1)C(=O)c1ccc(-c2ccccc2)[nH]1` (stereo unspecified), the IC50 is 51.3 µM and the IC90 turned out to be 86.4 µM.

With `Cc1ccc(C)c(-c2nn(-c3cc(N4CCN(CCO)CC4)ccc3[N+](=O)[O-])c(=O)c3ccccc23)c1`, the IC50 was 22.6 µM and the IC90 was 25.7 µM.

Take `Cc1cccc(OCc2n(CC(=O)OC3CC(C)CCC3C(C)C)c3ccccc3[n+]2C)c1` (stereo unspecified): the IC50 is 8.63 µM and the IC90 came out at 10.4 µM.

Regarding `CC(=O)C1=C(C)NC(SCC(=O)c2ccc(F)cc2)=C(C#N)C1c1ccco1` (stereo unspecified), the IC50 is 32.7 µM and the IC90 stood at 49.8 µM.

With `COc1ccc(-c2oc(NC(=O)CCl)c(C#N)c2-c2ccc(OC)cc2)cc1`, the IC50 was 43 µM and the IC90 stood at 61.7 µM.

For the compound `CCOC(=O)CN[C@H]1CCC2C3CC=C4C[C@@H](O)CC[C@]4(C)C3CC[C@@]21C` (stereo partly specified), the IC50 was 3.53 µM and the 90% effect concentration (IC90) is 14.3 µM.

`O=C(/C=C/c1c(F)cccc1Cl)c1ccc(F)cc1`: the IC50 is 46.2 µM and the IC90 came out at 73 µM.

In the case of `CC(=O)O[C@H]1C[C@@]2(C)[C@@H](C[C@@H](O)[C@H]3[C@@]4(C)CC[C@@H](O)[C@@H](C)[C@@H]4CC[C@@]32C)/C1=C(\CCC=C(C)C)C(=O)O`, the IC50 was 2.94 µM and the IC90 stood at 6.55 µM.

With `CN1C(C(=O)NCc2ccc(OC(F)(F)F)cc2)CC2Cn3c(nc4cc(Cl)c(Cl)cc43)C21` (stereo unspecified), the half-maximal inhibitory concentration (IC50) is 44.2 µM and the IC90 is 70.4 µM.

For the compound `O=[N+]([O-])c1cc([N+](=O)[O-])c2c(=Nc3ccccc3)n(-c3ccccc3)n(O)c2c1`, the IC50 was 8.32 µM and the IC90 was 10.3 µM.

As to `O=C(/C=C/c1ccc([N+](=O)[O-])cc1)NC1CC2CCC1C2` (stereo unspecified), the IC50 was 68.7 µM and the IC90 is > 100 µM.

For `O=C(Nc1ccc(Oc2cccc(C(F)(F)F)c2)nc1)c1cccs1`, the IC50 is 85.3 µM and the IC90 is > 100 µM.

`NC(N)=N/N=C/c1ccc(N(c2ccccc2)c2ccccc2)cc1`: the IC50 was 9.86 µM and the IC90 is 12.8 µM.

Turning to `Cc1nn(-c2ccccc2)nc1C(=O)c1c(C)[nH]n(-c2ccccc2)c1=O`, the IC50 was 17.5 µM and the IC90 turned out to be 23.2 µM.

For the compound `COc1ccc(N=c2ssnc2Cl)cc1`, the IC50 is 90.6 µM and the IC90 is > 100 µM.

For the compound `CCc1ccc2[nH]c(=O)c(CN(CCCN3CCOCC3)C(=O)Nc3cccc(Cl)c3)cc2c1`, the IC50 is 33.7 µM and the IC90 was determined as 40.5 µM.

Consider `Cc1cc(C)n(-c2nc(NCCN(C)C)c3c4c(sc3n2)CCCC4)n1`, for which the IC50 was 15.6 µM and the IC90 stood at 21.4 µM.

Consider `CN1C(=O)N(C)c2ccc(C=O)c3cccc1c23`, for which the IC50 is 45.5 µM and the IC90 turned out to be 51.4 µM.

As for `COc1ccc(COc2cc(-c3cccc(OC)c3)nc3ccc(NC(=O)c4ccc(OC)cc4)cc23)cc1`, the IC50 was 24 µM and the IC90 is > 100 µM.

With `O=C(C=C=Nc1ccccc1)C(=O)N=C=Cc1ccccc1`, the IC50 was 12.4 µM and the IC90 came out at 20.5 µM.

Consider `Cc1ccc(NC(=O)COC(=O)C(NS(=O)(=O)c2ccc(Cl)cc2)C(C)O)cc1C` (stereo unspecified), for which the IC50 is 16.1 µM and the IC90 was 36.2 µM.

Consider `CC1CCc2c(C(=O)Nc3nccs3)csc2C1` (stereo unspecified), for which the IC50 is 41.9 µM and the concentration for an effect of 90% (IC90) stood at 80.3 µM.

In the case of `COc1ccc(C2=NN(C(=O)COC(=O)c3ccc(S(C)(=O)=O)c([N+](=O)[O-])c3)C(c3ccco3)C2)cc1` (stereo unspecified), the IC50 was 18.3 µM and the IC90 was determined as 26.9 µM.

With `Cc1ccc(/C=N/NC(=S)NC(C)C)o1`, the IC50 was 42.4 µM and the IC90 was found to be 46.7 µM.

With `COc1ccc(-c2nsc3c(N4CCCCC4C)ncnc23)cc1` (stereo unspecified), the IC50 is 96.6 µM and the IC90 was > 100 µM.

Consider `Cn1ccnc1C(=O)C1CCCN(Cc2cn[nH]c2-c2ccc(-c3ccccc3)cc2)C1` (stereo unspecified), for which the IC50 is 77.1 µM and the IC90 was 99.4 µM.

For `COCCOC(=O)c1ccc(NC(=O)COc2ccc([N+](=O)[O-])cc2)cc1`, the IC90 was > 100 µM.

For the compound `Cc1ccnc(Sc2ccc([N+](=O)[O-])cc2[N+](=O)[O-])n1`, the IC50 is 19.8 µM and the IC90 was found to be 29.7 µM.

As to `C=CCOc1c(Br)cc(CNc2nccs2)cc1OC`, the IC50 was 31.4 µM and the IC90 was 48.2 µM.

Consider `Cc1nc(-c2nc(-c3c(C(=O)NNC(=O)c4ccc(Cl)cc4)noc3C)cs2)cs1`, for which the IC50 was 24.7 µM and the IC90 was > 100 µM.

Consider `Cc1ccc(C)c(NC(=O)c2cc(-c3ccccc3)nn2-c2ccccc2)c1`, for which the IC50 is 34.6 µM and the IC90 is 55.9 µM.

On to `O=C(OCC(=O)N1CCC(c2ccccc2)=N1)c1ccc(Cl)s1`, for which the IC50 was 97.6 µM and the IC90 is > 100 µM.

Regarding `CCCCC(O)(CCCC)C(=O)NN(C(=O)CCl)c1ccccc1`, the IC50 was 11.1 µM and the IC90 is 22.8 µM.

Consider `COCCn1nnnc1C(c1cc2cc(OC)ccc2[nH]c1=O)N1CCC(Cc2ccccc2)CC1` (stereo unspecified), for which the IC50 was 89.8 µM and the IC90 was > 100 µM.

On to `O=C(OCC(=O)c1c[nH]c2ccccc12)c1cc(Br)ccc1O`, for which the IC50 is 11.2 µM and the IC90 was found to be 13.1 µM.

On to `CCN(CC)c1ccc2nc3ccccc3[n+](CC)c2c1`, for which the IC50 was 3.23 µM and the IC90 came out at 5.55 µM.

With `CCOC(=O)c1cc(/C(C)=N/OC(=O)c2ccc(C(C)(C)C)cc2)on1`, the IC50 was 22.9 µM and the IC90 amounted to 26.8 µM.

On to `Cc1ccccc1NC(=O)Cc1nc(COC(=O)/C=C/c2ccccc2)cs1`, for which the concentration for half-maximal inhibition (IC50) was 67.7 µM and the IC90 stood at 92.3 µM.

With `CN1CCN(c2c(F)cc3c(=O)c(C(=O)O)cn4c3c2OCN4C)CC1`, the IC50 was 0.72 µM and the IC90 amounted to 0.93 µM.

For `Oc1ccccc1/C=N/Nc1ccnc(SCc2ccccc2)n1`, the IC50 was 2.69 µM and the IC90 is 2.95 µM.

For `CCCCn1c(SCc2ncc(-c3ccccc3)o2)nc2cc(S(N)(=O)=O)ccc21`, the IC50 was 5.25 µM and the IC90 was 8.34 µM.

As for `CCCOc1ccc(C(=O)NC(=S)NCc2cccnc2)cc1`, the IC50 is 35.1 µM and the IC90 was 45.7 µM.

`O=C(OCc1nc2ccccc2s1)c1ccc(Br)o1`: the IC50 was 33.5 µM and the 90% effect concentration (IC90) was > 50 µM.

With `Cc1nc(-c2ccc(Cl)cc2)sc1C1(C)CC(c2ccc(C#N)cc2)=NO1` (stereo unspecified), the IC50 was 43.6 µM and the IC90 is > 100 µM.

In the case of `CCN1CCN(CCCNC(=O)c2ccc(/C=C3/Oc4ccccc4N(Cc4cccc(C)c4)C3=O)cc2)CC1`, the IC50 is 45.2 µM and the IC90 amounted to 48.1 µM.

Take `O=C(c1ccc([N+](=O)[O-])s1)N1CCN(c2ccc(C(F)(F)F)cn2)CC1`: the IC50 was 13.7 µM and the IC90 amounted to 17.5 µM.

As for `COc1ccc(C)cc1Nc1n[n+](-c2ccccc2)c(-c2c(Cl)cccc2Cl)s1`, the 50% inhibitory concentration (IC50) is 18.4 µM and the IC90 came out at 24.9 µM.

For the compound `O=C(O)c1[nH]c(=O)[nH]c(=O)c1F`, the IC50 is 5.47 µM and the IC90 amounted to 14.1 µM.

Turning to `c1ccc(CN2CCN(CCCNc3ccc4nnc(-c5ccccc5)n4n3)CC2)cc1`, the IC50 is 22.1 µM and the IC90 came out at 25.3 µM.

By IC50 is commonly meant the concentration that gives 50% inhibition. Usually IC90 stands for the concentration needed for an effect of 90%. The low end stands for greater potency, the high end for weaker potency.
